In experiment [1] the test system is Rattus norvegicus. The experiment in a line: Tested orally in rats for antagonism of stereotypies induced by amphetamine. The format is functional.
The species entered for experiment [2] is Mus musculus.
Description: (§1) Compound (administered intraperitoneally) was assessed for neuroleptic activity to antagonize methyl phenidate induced stereotypes in mice
For experiment [3], the species on record is Rattus norvegicus.
Description: (§2) Ability to induce catalepsy in rats perorally, an effect normally related to clinical extrapyramidal side effects
Experiment [4] addresses T1, Sodium-dependent serotonin transporter (Rattus norvegicus, UniProt P31652).
The target of experiment [5] is Sodium-dependent dopamine transporter (Rattus norvegicus, UniProt P23977).
Sequence of Sodium-dependent dopamine transporter (P23977 whole entry): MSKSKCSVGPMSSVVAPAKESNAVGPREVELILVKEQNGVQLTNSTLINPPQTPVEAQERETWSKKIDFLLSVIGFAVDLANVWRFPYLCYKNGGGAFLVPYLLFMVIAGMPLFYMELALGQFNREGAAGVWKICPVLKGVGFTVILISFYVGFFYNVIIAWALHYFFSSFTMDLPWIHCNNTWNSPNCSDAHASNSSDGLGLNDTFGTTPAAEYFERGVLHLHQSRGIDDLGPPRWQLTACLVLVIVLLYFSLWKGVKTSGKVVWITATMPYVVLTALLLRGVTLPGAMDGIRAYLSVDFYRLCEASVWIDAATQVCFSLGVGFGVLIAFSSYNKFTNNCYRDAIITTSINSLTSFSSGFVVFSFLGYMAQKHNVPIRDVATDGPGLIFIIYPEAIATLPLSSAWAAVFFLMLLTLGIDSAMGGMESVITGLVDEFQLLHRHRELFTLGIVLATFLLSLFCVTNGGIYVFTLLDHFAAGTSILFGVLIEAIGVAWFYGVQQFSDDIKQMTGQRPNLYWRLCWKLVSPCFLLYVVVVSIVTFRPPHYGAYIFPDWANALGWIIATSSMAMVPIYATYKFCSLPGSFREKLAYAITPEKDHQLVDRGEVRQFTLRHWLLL
Description: Effect on synaptosomal uptake inhibition of Dopamine transporter
Experiment [6] addresses Adrenergic receptor beta (Rattus norvegicus, UniProt P18090+P10608+P26255).
Description: (§3) Effect on synaptosomal uptake inhibition of Noradrenaline (NA)
The species entered for experiment [7] is Rattus norvegicus. The experiment in a line: animal or person. Conditions: po.
Description: as §2
For experiment [8], the species on record is Mus musculus. The experiment in a line: animal or person. Conditions: ip.
Description: as §1
In experiment [9] the test system is Rattus norvegicus. Briefly: Compound was tested orally (po) in rats for antagonism of stereotypies induced by amphetamine; value ranges from 2.5-4.7. The format is functional.
For experiment [10], the system named is Rattus norvegicus. Briefly: Compound was tested orally (po) in rats for its ability to induce catalepsy, an effect normally related to clinical extrapyramidal side effects;value ranges from 1.3-3.4. It is filed as functional.
For experiment [11], the species on record is Mus musculus. The experiment in a line: Compound was assessed for thymoleptic activity by its ability to antagonize tetrabenazine ptosis in mice. The format is functional.
The target of experiment [12] is Dopamine receptor.
Description: Effect on synaptosomal uptake inhibition of Dopamine receptor
Experiment [13] deals with T1, Sodium-dependent serotonin transporter. The experiment in a line: Effect on synaptosomal uptake inhibition of 5-hydroxytryptamine (5-HT). It is filed as functional.
For experiment [14], the target named is Norepinephrine transporter (Rattus norvegicus, UniProt Q9WTR4).
Sequence of Norepinephrine transporter (Q9WTR4 whole entry): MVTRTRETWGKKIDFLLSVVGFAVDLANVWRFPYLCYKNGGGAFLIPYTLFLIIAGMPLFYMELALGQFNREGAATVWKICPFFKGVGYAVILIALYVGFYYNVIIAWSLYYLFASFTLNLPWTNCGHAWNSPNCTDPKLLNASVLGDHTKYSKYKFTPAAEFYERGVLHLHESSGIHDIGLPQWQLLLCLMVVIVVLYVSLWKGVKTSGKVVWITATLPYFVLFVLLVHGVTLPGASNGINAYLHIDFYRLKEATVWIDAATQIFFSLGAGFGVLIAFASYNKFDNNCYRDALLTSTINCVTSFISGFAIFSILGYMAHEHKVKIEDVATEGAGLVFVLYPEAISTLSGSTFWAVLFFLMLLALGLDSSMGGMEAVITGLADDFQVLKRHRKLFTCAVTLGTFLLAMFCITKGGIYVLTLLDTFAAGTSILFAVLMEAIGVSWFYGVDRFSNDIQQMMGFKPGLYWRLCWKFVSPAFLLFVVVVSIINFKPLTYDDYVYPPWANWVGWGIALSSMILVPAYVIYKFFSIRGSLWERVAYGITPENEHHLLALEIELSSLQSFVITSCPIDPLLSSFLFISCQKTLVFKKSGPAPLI
Description: as §3
Setting [15] is: Rattus norvegicus, po, read-out: ED50.

The record followed here is ChEMBL document CHEMBL1122477, “Neuroleptic activity and dopamine-uptake inhibition in 1-piperazino-3-phenylindans” (J Med Chem, 1983).

pIC50: −log10 of the molar value. Where only a bound is given, the exact number is not on record here.

As a reminder, the pIC50 is the IC50 on a negative log10 scale, so that one unit is a factor of ten. A word on the IC50: it is the concentration that inhibits the measured activity by half. High values mean weaker potency, low ones greater potency.

T1 sequence (P31652 whole entry): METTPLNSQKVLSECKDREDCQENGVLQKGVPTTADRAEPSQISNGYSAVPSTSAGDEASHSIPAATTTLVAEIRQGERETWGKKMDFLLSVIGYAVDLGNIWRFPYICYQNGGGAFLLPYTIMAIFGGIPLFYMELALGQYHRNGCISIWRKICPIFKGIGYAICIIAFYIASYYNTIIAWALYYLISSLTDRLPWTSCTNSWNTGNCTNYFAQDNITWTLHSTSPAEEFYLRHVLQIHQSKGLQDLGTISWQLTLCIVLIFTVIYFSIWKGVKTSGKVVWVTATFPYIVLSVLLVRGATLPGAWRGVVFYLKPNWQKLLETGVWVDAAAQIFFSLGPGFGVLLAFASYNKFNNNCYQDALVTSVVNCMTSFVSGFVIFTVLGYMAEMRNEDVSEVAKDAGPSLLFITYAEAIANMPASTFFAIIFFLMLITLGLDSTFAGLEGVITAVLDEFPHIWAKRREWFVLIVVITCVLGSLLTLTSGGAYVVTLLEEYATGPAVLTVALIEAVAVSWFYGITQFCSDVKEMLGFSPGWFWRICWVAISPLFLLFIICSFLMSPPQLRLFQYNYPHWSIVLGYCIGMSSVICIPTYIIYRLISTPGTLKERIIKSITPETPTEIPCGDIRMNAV

Turning to `Cl.Cl.OCC(O)CN1CCN(C2CC(c3ccc(F)cc3)c3ccc(F)cc32)CC1` (trans isomer), the results for the ED50 in experiment [1] (setting [15]), in experiment [2] and in [3] were 33 µmol/kg, 2.9 µM/kg and above 280 µM/kg, respectively.

With `CN1CCN(C2CC(c3ccc(F)cc3)c3ccc(F)cc32)CC1.Cl.Cl` (single isomer, unassigned; (+)), the results for the pIC50 in experiment [4] and in experiment [5] were 5.40 and 5.74, respectively. Further, the figures for the ED50 in experiment [1], in [2] and in [3] were 15 µM/kg, 2.5 µM/kg and 41 µM/kg, respectively.

Take `Cl.Cl.OCCCCN1CCN(C2CC(c3ccc(F)cc3)c3ccc(F)cc32)CC1` (cis isomer): the negative-log IC50 (pIC50) in [4] is 5.72; in experiment [5], 8.05. In experiment [2], this molecule showed an ED50 of 54 µM/kg. In experiment [6], the IC50 amounted to 0.03 µM.

For `Cl.Cl.OCCCCN1CCN(C2CC(c3ccc(F)cc3)c3ccc(F)cc32)CC1` (trans isomer), the results for the pIC50 in [4] and in experiment [5] were 6.21 and 7.60, respectively. For the same molecule, the ED50 in experiment [1] (setting [15]) is 7.7 µmol/kg; in [2], 6.5 µM/kg; in experiment [7], 47 µmol/kg. Moreover, in experiment [6], the IC50 was 0.019 µM.

For the molecule `Cl.Cl.OCCN1CCN(C2CC(c3ccc(F)cc3)c3ccc(C(F)(F)F)cc32)CC1` (cis isomer), the ED50 was above 80 µM/kg in [2] and above 166 µM/kg in experiment [3]. This molecule showed a pIC50 in [5] of 7.03.

On to `OCCN1CCN(CC/C=C2/c3ccccc3Sc3ccc(C(F)(F)F)cc32)CC1` [Z-FLUPENTIXOL], for which the ED50 in experiment [8] is 0.14 µmol/kg; in [9], 3.5 µmol/kg; in experiment [10] it was 2.1 µmol/kg.

`Cl.Cl.OCCN1CCN(C2CC(c3ccc(F)cc3)c3ccc(F)cc32)CC1` (stereo unspecified) showed a negative logarithm of the IC50 (pIC50) in experiment [4] of 5.64. Moreover, the ED50 in [1] was determined as 14 µM/kg; in experiment [2], 7 µM/kg; in [7], 184 µmol/kg. The IC50 in [6] turned out to be 0.15 µM.

As to `CN1CCN(C2CC(c3ccc(F)cc3)c3ccc(F)cc32)CC1.Cl.Cl` (stereo in doubt; 53), the pIC50 in experiment [4] was 5.70; in experiment [5], 6.74. For the same molecule, the ED50 amounted to 37 µM/kg in [1], 11 µM/kg in experiment [2] and 202 µM/kg in experiment [3].

As for `OCCN1CCN(C2CC(c3ccc(F)cc3)c3ccc(F)cc32)CC1` (stereo unspecified), in experiment [4], the negative logarithm of the IC50 (pIC50) was 5.01. Also, the ED50 in [1] and in [2] was above 112 µM/kg throughout. In experiment [6], this molecule came in with an IC50 of 0.14 µM.

In the case of `CN1CCN(C2CC(c3ccc(F)cc3)c3ccc(F)cc32)CC1.Cl.Cl` (stereo in doubt; 55), the pIC50 is 6.20 in [4] and 7.06 in [5]. For the same molecule, the ED50 in [1] is above 200 µM/kg; in experiment [2] it was 42 µM/kg; in [3], above 790 µM/kg.

Regarding `OCCN1CCN(C2CC(c3ccc(F)cc3)c3ccc(C(F)(F)F)cc32)CC1` (trans isomer), the pIC50 was 5.15 in experiment [4] and 6.28 in experiment [5]. In addition, the ED50 turned out to be 0.22 µmol/kg in [1] (setting [15]), 0.07 µM/kg in experiment [2] and 0.27 µM/kg in [3]. Further, the concentration for half-maximal inhibition (IC50) in experiment [6] was 0.66 µM.

In experiment [11], `CN1CCN(C2CC(c3ccc(Cl)c(Cl)c3)c3ccccc32)CC1.Cl.Cl` (single isomer, unassigned; 98) had an ED50 above 89 µmol/kg. Besides, in [12], the IC50 is 1.7 µM. The values for the pIC50 in [13] and in experiment [14] were 5.64 and 6.04, respectively.

`CN(C)C[C@@H]1C2CCC(CC2)[C@@H]1c1ccc(Cl)c(Cl)c1` (relative stereo) gave an ED50 in experiment [11] of 43 µmol/kg. The results for the pIC50 in [13] and in experiment [14] were 7.29 and 8.27, respectively.
